According to patent US20060263802A1 (priority 2003, published 2006):

What was measured:
Format in all cases: binding
[1] = test system: human monoclonal antibody CRJA
[2] = test system: human monoclonal antibody CRJB
[3] = test system: human monoclonal antibody CR57
[4] = test system: human monoclonal antibody CRJB; remark: listed apart in the source
[5] = test system: human monoclonal antibody CR57; remark: listed apart in the source
[6] = test system: human monoclonal antibody CRJA; remark: listed apart in the source

With FFNGIILGPDGNVLI the “Binding of CRJA (10 μg/ml) to looped/cyclic peptide (PEPSCAN-ELISA)” value [1] was 100, the “Binding of CRJB (10 μg/ml) to looped/cyclic peptide (PEPSCAN-ELISA)” value [2] was 96 and the “Binding of CR57 (10 μg/ml) to looped/cyclic peptide (PEPSCAN-ELISA)” value [3] was 72. For the same sequence, the “Binding of CRJB to linear peptide (PEPSCAN-ELISA signal)” value (“Binding of CRJB to linear peptide” for short) [4] was 143, the “Binding of CR57 to linear peptide (PEPSCAN-ELISA signal)” value (“Binding of CR57 to linear peptide” below) [5] was 92 and the “Binding of CRJA to linear peptide (PEPSCAN-ELISA signal)” value (shortened to “Binding of CRJA to linear peptide”) [6] was 119.

With LVRKREECLDALESI the “Binding of CRJA (10 μg/ml) to looped/cyclic peptide (PEPSCAN-ELISA)” value [1] was 101, the “Binding of CRJB (10 μg/ml) to looped/cyclic peptide (PEPSCAN-ELISA)” value [2] was 82 and the “Binding of CR57 (10 μg/ml) to looped/cyclic peptide (PEPSCAN-ELISA)” value [3] was 105. For the same sequence, the “Binding of CRJB to linear peptide” value [4] was 130, the “Binding of CR57 to linear peptide” value [5] was 86 and the “Binding of CRJA to linear peptide” value [6] was 107.

GCLRVGGRCHPHVNG was tested, and the “Binding of CRJA (10 μg/ml) to looped/cyclic peptide (PEPSCAN-ELISA)” value [1] was 105, the “Binding of CRJB (10 μg/ml) to looped/cyclic peptide (PEPSCAN-ELISA)” value [2] was 112 and the “Binding of CR57 (10 μg/ml) to looped/cyclic peptide (PEPSCAN-ELISA)” value [3] was 103. The “Binding of CRJB to linear peptide” value [4] was 125, the “Binding of CR57 to linear peptide” value [5] was 85 and the “Binding of CRJA to linear peptide” value [6] was 98.

With LAIKMNGFTCTGVVT the “Binding of CRJA (10 μg/ml) to looped/cyclic peptide (PEPSCAN-ELISA signal)” value [1] was 79, the “Binding of CRJB (10 μg/ml) to looped/cyclic peptide (PEPSCAN-ELISA signal)” value [2] was 91 and the “Binding of CR57 (10 μg/ml) to looped/cyclic peptide (PEPSCAN-ELISA signal)” value [3] was 76. For the same sequence, the “Binding of CRJB to linear peptide” value [4] was 130, the “Binding of CR57 to linear peptide” value [5] was 68 and the “Binding of CRJA to linear peptide” value [6] was 112.

In the case of VNGVFFNGIILGPDG, the “Binding of CRJA (10 μg/ml) to looped/cyclic peptide (PEPSCAN-ELISA)” value [1] is reported as 78, the “Binding of CRJB (10 μg/ml) to looped/cyclic peptide (PEPSCAN-ELISA)” value [2] is reported as 96 and the “Binding of CR57 (10 μg/ml) to looped/cyclic peptide (PEPSCAN-ELISA)” value [3] is reported as 90. For the same sequence, the “Binding of CRJB to linear peptide” value [4] was 116, the “Binding of CR57 to linear peptide” value [5] was 68 and the “Binding of CRJA to linear peptide” value [6] was 94.

In the case of VTEAENYTNFVGYVT, the “Binding of CRJA (10 μg/ml) to looped/cyclic peptide (PEPSCAN-ELISA signal)” value [1] is reported as 97, the “Binding of CRJB (10 μg/ml) to looped/cyclic peptide (PEPSCAN-ELISA signal)” value [2] is reported as 80 and the “Binding of CR57 (10 μg/ml) to looped/cyclic peptide (PEPSCAN-ELISA signal)” value [3] is reported as 84. The “Binding of CRJB to linear peptide” value [4] was 90, the “Binding of CR57 to linear peptide” value [5] was 79 and the “Binding of CRJA to linear peptide” value [6] was 79.

For TTKESLVIISPSVAD, the “Binding of CRJA (10 μg/ml) to looped/cyclic peptide (PEPSCAN-ELISA signal)” value [1] was 108, the “Binding of CRJB (10 μg/ml) to looped/cyclic peptide (PEPSCAN-ELISA signal)” value [2] was 71 and the “Binding of CR57 (10 μg/ml) to looped/cyclic peptide (PEPSCAN-ELISA signal)” value [3] was 114. The “Binding of CRJB to linear peptide” value [4] was 121, the “Binding of CR57 to linear peptide” value [5] was 78 and the “Binding of CRJA to linear peptide” value [6] was 91.

For NEILPSKGCLRVGGR, the “Binding of CRJA (10 μg/ml) to looped/cyclic peptide (PEPSCAN-ELISA)” value [1] was 105, the “Binding of CRJB (10 μg/ml) to looped/cyclic peptide (PEPSCAN-ELISA)” value [2] was 111 and the “Binding of CR57 (10 μg/ml) to looped/cyclic peptide (PEPSCAN-ELISA)” value [3] was 104. The “Binding of CRJB to linear peptide” value [4] was 130, the “Binding of CR57 to linear peptide” value [5] was 104 and the “Binding of CRJA to linear peptide” value [6] was 97.

For PDACRAAYNWKMAGD, the “Binding of CRJA (10 μg/ml) to looped/cyclic peptide (PEPSCAN-ELISA signal)” value [1] was 96, the “Binding of CRJB (10 μg/ml) to looped/cyclic peptide (PEPSCAN-ELISA signal)” value [2] was 76 and the “Binding of CR57 (10 μg/ml) to looped/cyclic peptide (PEPSCAN-ELISA signal)” value [3] was 97. For the same sequence, the “Binding of CRJB to linear peptide” value [4] was 124, the “Binding of CR57 to linear peptide” value [5] was 61 and the “Binding of CRJA to linear peptide” value [6] was 93.

RYEESLHNPYPDYRW was tested, and the “Binding of CRJA (10 μg/ml) to looped/cyclic peptide (PEPSCAN-ELISA signal)” value [1] was 91, the “Binding of CRJB (10 μg/ml) to looped/cyclic peptide (PEPSCAN-ELISA signal)” value [2] was 71 and the “Binding of CR57 (10 μg/ml) to looped/cyclic peptide (PEPSCAN-ELISA signal)” value [3] was 98. For the same sequence, the “Binding of CRJB to linear peptide” value [4] was 112, the “Binding of CR57 to linear peptide” value [5] was 69 and the “Binding of CRJA to linear peptide” value [6] was 96.

For YKSVRTWNEILPSKG, the “Binding of CRJA (10 μg/ml) to looped/cyclic peptide (PEPSCAN-ELISA)” value [1] was 132, the “Binding of CRJB (10 μg/ml) to looped/cyclic peptide (PEPSCAN-ELISA)” value [2] was 94 and the “Binding of CR57 (10 μg/ml) to looped/cyclic peptide (PEPSCAN-ELISA)” value [3] was 117. For the same sequence, the “Binding of CRJB to linear peptide” value [4] was 137, the “Binding of CR57 to linear peptide” value [5] was 66 and the “Binding of CRJA to linear peptide” value [6] was 113.

GIILGPDGNVLIPEM was tested, and the “Binding of CRJA (10 μg/ml) to looped/cyclic peptide (PEPSCAN-ELISA)” value [1] was 92, the “Binding of CRJB (10 μg/ml) to looped/cyclic peptide (PEPSCAN-ELISA)” value [2] was 93 and the “Binding of CR57 (10 μg/ml) to looped/cyclic peptide (PEPSCAN-ELISA)” value [3] was 108. For the same sequence, the “Binding of CRJB to linear peptide” value [4] was 132, the “Binding of CR57 to linear peptide” value [5] was 107 and the “Binding of CRJA to linear peptide” value [6] was 107.

In the case of CTGVVTEAENYTNFV, the “Binding of CRJA (10 μg/ml) to looped/cyclic peptide (PEPSCAN-ELISA signal)” value [1] is reported as 101, the “Binding of CRJB (10 μg/ml) to looped/cyclic peptide (PEPSCAN-ELISA signal)” value [2] is reported as 85 and the “Binding of CR57 (10 μg/ml) to looped/cyclic peptide (PEPSCAN-ELISA signal)” value [3] is reported as 92. The “Binding of CRJB to linear peptide” value [4] was 123, the “Binding of CR57 to linear peptide” value [5] was 76 and the “Binding of CRJA to linear peptide” value [6] was 89.

TTKSVSFRRLSHLRK was tested, and the “Binding of CRJA (10 μg/ml) to looped/cyclic peptide (PEPSCAN-ELISA)” value [1] was 97, the “Binding of CRJB (10 μg/ml) to looped/cyclic peptide (PEPSCAN-ELISA)” value [2] was 72 and the “Binding of CR57 (10 μg/ml) to looped/cyclic peptide (PEPSCAN-ELISA)” value [3] was 92. For the same sequence, the “Binding of CRJB to linear peptide” value [4] was 118, the “Binding of CR57 to linear peptide” value [5] was 66 and the “Binding of CRJA to linear peptide” value [6] was 94.

In the case of KCSGVAVSSTYCSTN, the “Binding of CRJA (10 μg/ml) to looped/cyclic peptide (PEPSCAN-ELISA signal)” value [1] is reported as 78, the “Binding of CRJB (10 μg/ml) to looped/cyclic peptide (PEPSCAN-ELISA signal)” value [2] is reported as 83 and the “Binding of CR57 (10 μg/ml) to looped/cyclic peptide (PEPSCAN-ELISA signal)” value [3] is reported as 101. The “Binding of CRJB to linear peptide” value [4] was 130, the “Binding of CR57 to linear peptide” value [5] was 88 and the “Binding of CRJA to linear peptide” value [6] was 111.

ENPRLGMSCDIFTNS was tested, and the “Binding of CRJA (10 μg/ml) to looped/cyclic peptide (PEPSCAN-ELISA signal)” value [1] was 113, the “Binding of CRJB (10 μg/ml) to looped/cyclic peptide (PEPSCAN-ELISA signal)” value [2] was 88 and the “Binding of CR57 (10 μg/ml) to looped/cyclic peptide (PEPSCAN-ELISA signal)” value [3] was 100. For the same sequence, the “Binding of CRJB to linear peptide” value [4] was 118, the “Binding of CR57 to linear peptide” value [5] was 71 and the “Binding of CRJA to linear peptide” value [6] was 101.

PSVADLDPYDRSLHS was tested, and the “Binding of CRJA (10 μg/ml) to looped/cyclic peptide (PEPSCAN-ELISA signal)” value [1] was 62, the “Binding of CRJB (10 μg/ml) to looped/cyclic peptide (PEPSCAN-ELISA signal)” value [2] was 33 and the “Binding of CR57 (10 μg/ml) to looped/cyclic peptide (PEPSCAN-ELISA signal)” value [3] was 57. The “Binding of CRJB to linear peptide” value [4] was 114, the “Binding of CR57 to linear peptide” value [5] was 44 and the “Binding of CRJA to linear peptide” value [6] was 72.

PWSPIDIHHLSCPNN was tested, and the “Binding of CRJA (10 μg/ml) to looped/cyclic peptide (PEPSCAN-ELISA signal)” value [1] was 91, the “Binding of CRJB (10 μg/ml) to looped/cyclic peptide (PEPSCAN-ELISA signal)” value [2] was 75 and the “Binding of CR57 (10 μg/ml) to looped/cyclic peptide (PEPSCAN-ELISA signal)” value [3] was 93. The “Binding of CRJB to linear peptide” value [4] was 104, the “Binding of CR57 to linear peptide” value [5] was 62 and the “Binding of CRJA to linear peptide” value [6] was 76.
